*1 amine or outer side, *2 acyl side, *3 side chain or, on linkers, in order; H or OH if unused. Where a SMILES comes first, the peptide text is derived from it. Bridges are numbered along the chain shown (N, C = ends). [ ]: non-standard residue; d: D form. Trp(5-Cl) = N[C@@H](Cc1c[nH]c2ccc(Cl)cc12)C(=O)O; Phe(3,4-Cl2) = N[C@@H](Cc1ccc(Cl)c(Cl)c1)C(=O)O; Pyridine(2,6-diCH2) = c1cc(C[*:1])nc(C[*:2])c1; Phe(3-Cl) = N[C@@H](Cc1cccc(Cl)c1)C(=O)O; Phe(4-Cl) = N[C@@H](Cc1ccc(Cl)cc1)C(=O)O; mXylylene = c1cc(C[*:1])cc(C[*:2])c1; Hyp = O=C(O)[C@@H]1C[C@@H](O)CN1; pS = N[C@@H](COP(=O)(O)O)C(=O)O; Aic = NC1(C(=O)O)Cc2ccccc2C1; Suc = O=C(CCC(=O)[*:2])[*:1]; hCys = N[C@@H](CCS)C(=O)O; Ac5c = NC1(C(=O)O)CCCC1; Thp = NC1(C(=O)O)CCOCC1; Aib = CC(C)(N)C(=O)O
Target: T1, GIPR (CHO-K1-hGIPR cells) (Homo sapiens, UniProt P48546)
T1 construct: host or cells: CHO-K1
T1 sequence (P48546 22-466): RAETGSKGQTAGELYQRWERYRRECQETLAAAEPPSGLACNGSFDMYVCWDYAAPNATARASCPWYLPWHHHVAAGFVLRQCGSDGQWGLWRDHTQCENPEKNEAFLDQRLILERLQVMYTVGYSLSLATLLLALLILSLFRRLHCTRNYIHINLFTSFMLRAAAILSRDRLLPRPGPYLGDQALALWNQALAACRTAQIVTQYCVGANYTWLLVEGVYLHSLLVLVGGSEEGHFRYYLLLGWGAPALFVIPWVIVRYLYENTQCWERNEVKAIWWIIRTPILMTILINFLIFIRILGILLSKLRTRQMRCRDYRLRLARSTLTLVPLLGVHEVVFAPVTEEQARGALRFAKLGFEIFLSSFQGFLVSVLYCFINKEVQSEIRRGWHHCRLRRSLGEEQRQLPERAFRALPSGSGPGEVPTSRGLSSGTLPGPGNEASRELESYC
Experiment: FACS binding assay
Conditions: competition with 20 nM GIP-057, 4° C., 1 hour, read-out: pIC50 Category (converted)
Summary of the method: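 CHO-K1 cells stably expressing human GIPR were detached with Accutase, suspended at 500.000 cells per mL in PBS with 1% FCS, and washed ice-cold. Bound peptide was detected with 1 μg/mL APC-streptavidin for 30 min on ice.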

IC50 [nM] | Compound
< 10 | CC[C@H](C)[C@@H]1NC(=O)[C@H](CC(C)C)NC(=O)C(C)(C)NC(=O)[C@@H](NC(=O)[C@@H](CC(C)C)NC(=O)[C@H](CCC(=O)O)NC(=O)[C@@H]2CCCN2C(=O)[C@H](Cc2c[nH]c3ccc(Cl)cc23)NC(=O)[C@H](Cc2c[nH]c3ccccc23)NC(=O)CCC(=O)O)CSCc2cccc(c2)CSC[C@@H](C(N)=O)NC1=O [GIP-198, HO-Succinyl-Trp-5Clw-Pro-Glu-leu-[Cys(3MeBn)-Aib-Leu-Ile-Cys]-NH2] (Suc-W[Trp(5-Cl)]PE[dL]C[Aib]LIC-NH2; linker 6-10 via mXylylene)
< 10 | CC[C@H](C)[C@@H]1NC(=O)[C@H](CC(C)C)NC(=O)C2(CCOCC2)NC(=O)[C@@H](NC(=O)[C@@H](CC(C)C)NC(=O)[C@H](CCC(=O)O)NC(=O)[C@@H]2CCCN2C(=O)[C@H](Cc2c[nH]c3ccc(Cl)cc23)NC(=O)[C@H](Cc2c[nH]c3ccccc23)NC(=O)CCC(=O)O)CSCc2cccc(c2)CSC[C@@H](C(N)=O)NC1=O [GIP-199] (Suc-W[Trp(5-Cl)]PE[dL]C[Thp]LIC-NH2; linker 6-10 via mXylylene)
< 10 | CC[C@H](C)[C@@H]1NC(=O)[C@H](CC(C)C)NC(=O)C2(CCOCC2)NC(=O)[C@@H](NC(=O)[C@@H](CC(C)C)NC(=O)[C@H](CCC(=O)O)NC(=O)[C@@H]2C[C@@H](O)CN2C(=O)[C@H](Cc2c[nH]c3ccc(Cl)cc23)NC(=O)[C@H](Cc2c[nH]c3ccccc23)NC(=O)[C@H](CC(=O)O)NC(C)=O)CCSCc2cccc(n2)CSC[C@@H](C(N)=O)NC1=O [GIP-200, Ac-Asp-Trp-5Clw-Hyp-Glu-leu-[Hcy(2Lut)-Thp-Leu-Ile-Cys]-NH2] (Ac-DW[Trp(5-Cl)][Hyp]E[dL][hCys][Thp]LIC-NH2; linker 7-11 via Pyridine(2,6-diCH2))
< 10 | CC[C@H](C)[C@@H]1NC(=O)[C@H](CC(C)C)NC(=O)C2(CCOCC2)NC(=O)[C@@H](NC(=O)[C@@H](CC(C)C)NC(=O)[C@H](CCC(=O)O)NC(=O)[C@@H]2C[C@@H](O)CN2C(=O)[C@H](Cc2c[nH]c3ccc(Cl)cc23)NC(=O)[C@H](Cc2c[nH]c3ccccc23)NC(=O)[C@H](CC(=O)O)NC(C)=O)CSCc2cccc(n2)CSCC[C@@H](C(N)=O)NC1=O [GIP-201, Ac-Asp-Trp-5Clw-Hyp-Glu-leu-[Cys(2Lut)-Thp-Leu-Ile-Hcy]-NH2] (Ac-DW[Trp(5-Cl)][Hyp]E[dL]C[Thp]LI[hCys]-NH2; linker 7-11 via Pyridine(2,6-diCH2))
< 10 | CC[C@H](C)[C@@H]1NC(=O)[C@H](CC(C)C)NC(=O)C2(CCOCC2)NC(=O)[C@@H](NC(=O)[C@@H](CC(C)C)NC(=O)[C@H](CCC(=O)O)NC(=O)[C@@H]2C[C@@H](O)CN2C(=O)[C@H](Cc2c[nH]c3ccc(Cl)cc23)NC(=O)[C@H](Cc2c[nH]c3ccccc23)NC(=O)[C@H](CC(=O)O)NC(C)=O)CCSCc2cccc(n2)CSCC[C@@H](C(N)=O)NC1=O [GIP-202, Ac-Asp-Trp-5Clw-Hyp-Glu-leu-[Hcy(2Lut)-Thp-Leu-Ile-Hcy]-NH2] (Ac-DW[Trp(5-Cl)][Hyp]E[dL][hCys][Thp]LI[hCys]-NH2; linker 7-11 via Pyridine(2,6-diCH2))
< 10 | CC[C@H](C)[C@@H]1NC(=O)[C@H](CC(C)C)NC(=O)C2(CCCC2)NC(=O)[C@@H](NC(=O)[C@@H](CC(C)C)NC(=O)[C@H](CCC(=O)O)NC(=O)[C@@H]2C[C@@H](O)CN2C(=O)[C@H](Cc2c[nH]c3ccc(Cl)cc23)NC(=O)[C@H](Cc2c[nH]c3ccccc23)NC(=O)[C@H](CC(=O)O)NC(C)=O)CSCc2cccc(n2)CSC[C@@H](C(N)=O)NC1=O [GIP-203, Ac-Asp-Trp-5Clw-Hyp-Glu-leu-[Cys(2Lut)-Eca-Leu-Ile-Cys]-NH2] (Ac-DW[Trp(5-Cl)][Hyp]E[dL]C[Ac5c]LIC-NH2; linker 7-11 via Pyridine(2,6-diCH2))
< 10 | CC[C@H](C)[C@@H]1NC(=O)[C@H](CC(C)C)NC(=O)C2(CCOCC2)NC(=O)[C@@H](NC(=O)[C@@H](CC(C)C)NC(=O)[C@H](CCC(=O)O)NC(=O)[C@@H]2C[C@@H](O)CN2C(=O)[C@H](Cc2c[nH]c3ccc(Cl)cc23)NC(=O)[C@H](Cc2c[nH]c3ccccc23)NC(=O)[C@H](CCC(N)=O)NC(C)=O)CSCc2cccc(n2)CSC[C@@H](C(N)=O)NC1=O [GIP-204, Ac-Gln-Trp-5Clw-Hyp-Glu-leu-[Cys(2Lut)-Thp-Leu-Ile-Cys]-NH2] (Ac-QW[Trp(5-Cl)][Hyp]E[dL]C[Thp]LIC-NH2; linker 7-11 via Pyridine(2,6-diCH2))
< 10 | CC[C@H](C)[C@@H]1NC(=O)[C@H](CC(C)C)NC(=O)C2(CCOCC2)NC(=O)[C@@H](NC(=O)[C@@H](CC(C)C)NC(=O)[C@H](CC(N)=O)NC(=O)[C@@H]2C[C@@H](O)CN2C(=O)[C@H](Cc2c[nH]c3ccc(Cl)cc23)NC(=O)[C@H](Cc2c[nH]c3ccccc23)NC(=O)[C@H](CC(=O)O)NC(C)=O)CSCc2cccc(n2)CSC[C@@H](C(N)=O)NC1=O [GIP-205, Ac-Asp-Trp-5Clw-Hyp-Asn-leu-[Cys(2Lut)-Thp-Leu-Ile-Cys]-NH2] (Ac-DW[Trp(5-Cl)][Hyp]N[dL]C[Thp]LIC-NH2; linker 7-11 via Pyridine(2,6-diCH2))
< 10 | CC[C@H](C)[C@@H]1NC(=O)[C@H](CC(C)C)NC(=O)C2(Cc3ccccc3C2)NC(=O)[C@@H](NC(=O)[C@@H](CC(C)C)NC(=O)[C@H](CCC(=O)O)NC(=O)[C@@H]2C[C@@H](O)CN2C(=O)[C@H](Cc2c[nH]c3ccc(Cl)cc23)NC(=O)[C@H](Cc2c[nH]c3ccccc23)NC(=O)[C@H](CC(=O)O)NC(C)=O)CSCc2cccc(n2)CSC[C@@H](C(N)=O)NC1=O [GIP-206, Ac-Asp-Trp-5Clw-Hyp-Glu-leu-[Cys(2Lut)-Aic-Leu-Ile-Cys]-NH2] (Ac-DW[Trp(5-Cl)][Hyp]E[dL]C[Aic]LIC-NH2; linker 7-11 via Pyridine(2,6-diCH2))
< 10 | CC[C@H](C)[C@@H]1NC(=O)[C@H](CC(C)C)NC(=O)C2(CCOCC2)NC(=O)[C@@H](NC(=O)[C@@H](CC(C)C)NC(=O)[C@H](CCC(=O)O)NC(=O)[C@@H]2C[C@@H](O)CN2C(=O)[C@H](Cc2c[nH]c3ccc(Cl)cc23)NC(=O)[C@H](Cc2c[nH]c3ccccc23)NC(=O)[C@H](COP(=O)(O)O)NC(C)=O)CSCc2cccc(n2)CSC[C@@H](C(N)=O)NC1=O [GIP-207, Ac-Pse-Trp-5Clw-Hyp-Glu-leu-[Cys(2Lut)-Thp-Leu-Ile-Cys]-NH2] (Ac-[pS]W[Trp(5-Cl)][Hyp]E[dL]C[Thp]LIC-NH2; linker 7-11 via Pyridine(2,6-diCH2))
< 10 | CC[C@H](C)[C@@H]1NC(=O)[C@H](CC(C)C)NC(=O)C2(CCOCC2)NC(=O)[C@@H](NC(=O)[C@@H](CC(C)C)NC(=O)[C@H](COP(=O)(O)O)NC(=O)[C@@H]2C[C@@H](O)CN2C(=O)[C@H](Cc2c[nH]c3ccc(Cl)cc23)NC(=O)[C@H](Cc2c[nH]c3ccccc23)NC(=O)[C@H](CC(=O)O)NC(C)=O)CSCc2cccc(n2)CSC[C@@H](C(N)=O)NC1=O [GIP-208, Ac-Asp-Trp-5Clw-Hyp-Pse-leu-[Cys(2Lut)-Thp-Leu-Ile-Cys]-NH2] (Ac-DW[Trp(5-Cl)][Hyp][pS][dL]C[Thp]LIC-NH2; linker 7-11 via Pyridine(2,6-diCH2))
< 10 | CC[C@H](C)[C@@H]1NC(=O)[C@H](CC(C)C)NC(=O)C2(CCOCC2)NC(=O)[C@@H](NC(=O)[C@@H](CC(C)C)NC(=O)[C@H](CCC(=O)O)NC(=O)[C@@H]2C[C@@H](O)CN2C(=O)[C@H](Cc2c[nH]c3ccc(Cl)cc23)NC(=O)[C@H](Cc2cccc(Cl)c2)NC(=O)[C@H](CC(=O)O)NC(C)=O)CSCc2cccc(n2)CSC[C@@H](C(N)=O)NC1=O [GIP-209, Ac-Asp-Mcf-5Clw-Hyp-Glu-leu-[Cys(2Lut)-Thp-Leu-Ile-Cys]-NH2] (Ac-D[Phe(3-Cl)][Trp(5-Cl)][Hyp]E[dL]C[Thp]LIC-NH2; linker 7-11 via Pyridine(2,6-diCH2))
< 10 | CC[C@H](C)[C@@H]1NC(=O)[C@H](CC(C)C)NC(=O)C2(CCOCC2)NC(=O)[C@@H](NC(=O)[C@@H](CC(C)C)NC(=O)[C@H](CCC(=O)O)NC(=O)[C@@H]2C[C@@H](O)CN2C(=O)[C@H](Cc2c[nH]c3ccc(Cl)cc23)NC(=O)[C@H](Cc2ccc(Cl)cc2)NC(=O)[C@H](CC(=O)O)NC(C)=O)CSCc2cccc(n2)CSC[C@@H](C(N)=O)NC1=O [GIP-210, Ac-Asp-Pcf-5Clw-Hyp-Glu-leu-[Cys(2Lut)-Thp-Leu-Ile-Cys]-NH2] (Ac-D[Phe(4-Cl)][Trp(5-Cl)][Hyp]E[dL]C[Thp]LIC-NH2; linker 7-11 via Pyridine(2,6-diCH2))
< 10 | CC[C@H](C)[C@@H]1NC(=O)[C@H](CC(C)C)NC(=O)C2(CCOCC2)NC(=O)[C@@H](NC(=O)[C@@H](CC(C)C)NC(=O)[C@H](CCC(=O)O)NC(=O)[C@@H]2C[C@@H](O)CN2C(=O)[C@H](Cc2c[nH]c3ccc(Cl)cc23)NC(=O)[C@H](Cc2ccc(Cl)c(Cl)c2)NC(=O)[C@H](CC(=O)O)NC(C)=O)CSCc2cccc(n2)CSC[C@@H](C(N)=O)NC1=O [GIP-211, Ac-Asp-Eaa-5Clw-Hyp-Glu-leu-[Cys(2Lut)-Thp-Leu-Ile-Cys]-NH2] (Ac-D[Phe(3,4-Cl2)][Trp(5-Cl)][Hyp]E[dL]C[Thp]LIC-NH2; linker 7-11 via Pyridine(2,6-diCH2))

— patent publication US20250296971A1, “GASTRIC INHIBITORY PEPTIDE RECEPTOR LIGANDS” (priority 2021, published 2025)
